Patent US5216175A, “Antimalarial analogs of artemisinin” (SRI International, priority 1990, dated 1993)
≈ marks a conversion by molar mass, not a printed value. Like-named read-outs stand apart in the source and are kept apart here.

Experiments:
P. falciparum = assay: In vitro antimalarial activity / SAR data, clone not stated; type: cell-based
Text: (§1) The analogs have been segregated arbitrarily here into those compounds in which the tetracyclic skeleton is intact (Table 2) and various ring-cleaved analogs (Table 3). The activities of the conventional malaria therapeutics chloroquine, mefloquine, and pyrimethamine is included for comparison.

P. falciparum W-2 clone = assay: In vitro antimalarial activity, P. falciparum W-2 clone; type: cell-based; settings: W-2 clone; for IC50: Plasmodium falciparum
Text: as §1

P. falciparum D-6 clone = assay: In vitro antimalarial activity, P. falciparum D-6 clone; type: cell-based; settings: D-6 clone; for IC50: Plasmodium falciparum
Text: as §1

[1] = Brossi et al.; cited from earlier work
[2] = Table 2, drug-resistant strains of P. falciparum, read-out: IC50 W-2 clone
[3] = Table 2, drawing 57 (artemisinin) = 100
[4] = Table 2, drug-resistant strains of P. falciparum, read-out: IC50 D-6 clone

CCC1(CC)OO[C@]23CCCC[C@H]2[C@@H](C)C(=O)O[C@@H]3O1 (relative stereo) [compound 52]
activity change by additional alkyl groups in the vicinity of the peroxy group (P. falciparum; 24 versus 52): reduced activity substantially

C[C@H]1C(=O)O[C@@H]2OC(C)(C)OO[C@@]23CCCC[C@@H]13 (relative stereo) [compound 4582]
IC50 (P. falciparum W-2 clone; Table 3, tricyclic analogs, read-out: In vitro IC50 W-2 clone): 38.1 ng/mL (≈ 0.149 µM) | Relative potency (W-2 clone) (P. falciparum W-2 clone; Table 3, tricyclic analogs): 6 | IC50 (P. falciparum D-6 clone; Table 3, tricyclic analogs, read-out: In vitro IC50 D-6 clone): 22.2 ng/mL (≈ 0.0867 µM) | Relative potency (D-6 clone) (P. falciparum D-6 clone; Table 3, tricyclic analogs): 20 | activity relative to 12 (P. falciparum; of the activity of 12 (artemisinin), clone not stated): about 20%

CCO[C@H]1O[C@@H]2O[C@@]3(C)CC[C@H]4[C@H](C)CC[C@@H]([C@H]1C)[C@@]24OO3 [arteether]
potency relative to artemisinin (12) [1]: higher potency

CCC[C@H]1[C@@H](OCC)O[C@@H]2O[C@@]3(C)CC[C@H]4[C@H](C)CC[C@@H]1[C@@]24OO3 [compound 4600, (+)-Octahydro-3,6-dimethyl-10β-ethoxy-3,12-epoxy-9β-propyl-12H-pyrano[4.3-j]-1,2-benzodioxepine]
IC50 (P. falciparum W-2 clone; [2]): 0.63 ng/mL (≈ 0.00185 µM) | Relative potency (W-2 clone) (P. falciparum W-2 clone; [3]): 76 | IC50 (P. falciparum D-6 clone; [4]): 0.39 ng/mL (≈ 0.00115 µM) | Relative potency (D-6 clone) (P. falciparum D-6 clone; [3]): 120

CCc1nc(N)nc(N)c1-c1ccc(Cl)cc1 [pyrimethamine, reference compound]
IC50 (P. falciparum W-2 clone; [2]): 121 ng/mL (≈ 0.486 µM) | Relative potency (W-2 clone) (P. falciparum W-2 clone; [3]): 2 | IC50 (P. falciparum D-6 clone; [4]): 0.35 ng/mL (≈ 0.00141 µM) | Relative potency (D-6 clone) (P. falciparum D-6 clone; [3]): 1269

(+)-Hexahydro-3,3,7,10α,11β-pentamethyl-4aH,6H-1,2,4-trioxino-[ 6.5-j][2] benzopyran-6-one [compound 4594]
In vitro IC50 W-2 clone (P. falciparum W-2 clone; Table 3, tricyclic analogs): 2.06 ng/mL | Relative potency (W-2 clone) (P. falciparum W-2 clone; Table 3, tricyclic analogs): 24 | In vitro IC50 D-6 clone (P. falciparum D-6 clone; Table 3, tricyclic analogs): 5.35 ng/mL | Relative potency (D-6 clone) (P. falciparum D-6 clone; Table 3, tricyclic analogs): 23

(-)-4ab,7a,7aa,10β-Hexahydro-3,3,7β,10a-tetramethyl-4aH,6H-trioxino[6.5-j][2]-benzopyran-6-one [compound 4591]
In vitro IC50 W-2 clone (P. falciparum W-2 clone; Table 3, tricyclic analogs): 9.71 ng/mL | Relative potency (W-2 clone) (P. falciparum W-2 clone; Table 3, tricyclic analogs): 9 | In vitro IC50 D-6 clone (P. falciparum D-6 clone; Table 3, tricyclic analogs): 9.65 ng/mL | Relative potency (D-6 clone) (P. falciparum D-6 clone; Table 3, tricyclic analogs): 8
